{
  "source": "patent US20240325495A1",
  "about": "“FUSION PROTEINS FOR THE TREATMENT OF DISEASE” (Bristol-Myers Squibb Company, priority 2020, published 2024)",
  "key": {"monkeys [1]": {"tested_on": "monkeys", "experiment": "Single-dose exploratory tolerability PK/PD study, SC, monkeys"}, "monkeys [2]": {"tested_on": "monkeys", "experiment": "12-week monkey toxicity study, SC Q3W", "protocol": "In the 12-week monkey study, dose range and frequencies were reduced compared to the 2-week study with BMS-986326 administered at 0.0625, 0.125, or 0.25 mg/kg SC Q3W (Days 1, 22, 43, and 64)."}, "monkeys [3]": {"tested_on": "monkeys", "conditions": "monkey, in vivo, sc"}, "Treg": {"tested_on": "Treg", "experiment": "Phase 1 single ascending dose study, Cohort A4", "format": "in vivo, human", "conditions": "Cohort A4, 3 mg single intravenous infusion, compared to placebo; preliminary", "protocol": "BMS-986326 is assessed in a Phase 1, randomized, double-blind, placebo-controlled, single ascending doses (SAD) study to evaluate the safety, tolerability, pharmacokinetics (PK), and pharmacodynamics (PD) of single doses of BMS-986326 in healthy adult participants.\nBlood samples are collected and measured by flow cytometry for quantitating immune cells such as Treg, Tconv, follicular helper T cells (Tfh), B cells, and NK cells by surface markers that may include, but not limited to, cell lineage and activation markers CD3, CD4, CD8, CD14, CD25, CD39, CD45, CD45RA, CD56, CD127, Foxp3, Helios, CXCR5, CCR7, and Ki67. Blood samples are also collected and measured by flow cytometry for determining BMS-986326 engagement to Treg, Tconv, CD8 T cells, and NK cells identified by pSTAT5.\nPreliminary Results from BMS-986326 Cohort A4 (3 mg Single Intravenous Infusion)"}, "[4]": {"experiment": "Linker-cleavage ex vivo in monkey serum samples (LC-MS/MS)", "format": "in vitro ADME", "conditions": "monkey serum samples ex vivo after SC administration, up to 168 hours", "protocol": "(§1) Various in vitro and in vivo studies were conducted to characterize the PK of BMS-986326 in the nonclinical setting."}, "rats [5]": {"tested_on": "rats", "experiment": "Single-dose exploratory SC study in rats", "format": "in vivo"}, "[6]": {"tested_on": "Kit225 Interferon Regulatory Factor 1 (IRF1)-driven reporter cell line", "experiment": "Kit225 IRF1-driven reporter cell line assay", "format": "cell-based"}, "[7]": {"target": "T1, IL-2Rβγ (as a pre-assembled heterodimer) (Mus musculus, UniProt P16297+P34902)", "T1 sequence (P16297 27-240 limits assumed)": "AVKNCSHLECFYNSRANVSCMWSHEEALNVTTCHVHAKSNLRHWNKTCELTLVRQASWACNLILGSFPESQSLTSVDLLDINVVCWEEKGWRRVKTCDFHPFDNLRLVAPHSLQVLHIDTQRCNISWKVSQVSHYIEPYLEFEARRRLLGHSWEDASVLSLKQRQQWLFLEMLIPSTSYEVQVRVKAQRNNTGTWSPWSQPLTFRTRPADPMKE", "T1 sequence (P34902 23-263 limits assumed)": "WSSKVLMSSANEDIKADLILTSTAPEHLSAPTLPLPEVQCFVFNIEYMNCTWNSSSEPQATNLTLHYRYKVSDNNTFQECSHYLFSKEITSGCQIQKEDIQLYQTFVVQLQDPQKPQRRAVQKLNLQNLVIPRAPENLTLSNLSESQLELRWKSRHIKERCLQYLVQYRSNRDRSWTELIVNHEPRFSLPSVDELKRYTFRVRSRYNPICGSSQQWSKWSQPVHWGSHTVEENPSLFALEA", "experiment": "Binding affinity to mouse IL-2Rβγ"}, "monkeys [8]": {"tested_on": "monkeys", "conditions": "monkey, in vivo"}, "[9]": {"target": "IL-2Rβγ (as a pre-assembled heterodimer)", "experiment": "Binding affinity to rat IL-2Rβγ"}, "[10]": {"experiment": "Linker-cleavage in human serum in vitro (LC-MS/MS)", "format": "in vitro ADME", "conditions": "up to 72 hours", "protocol": "as §1"}, "rats [11]": {"tested_on": "rats", "experiment": "2-week toxicity study in rats, once weekly SC", "format": "in vivo", "source_text": "The highest exposures were noted during the first week of each study and diminished considerably during the second week, due to ADA impact. […] Splenic capsular fibroplasia with inflammation was considered adverse at all twice weekly doses due to moderate to marked severity and was also associated with minimal to mild inflammation in the mesentery (adjacent to the stomach and pancreas), which further contributed to the adversity of the finding. […] The primary BMS-986326-related effects were mostly minimal in severity at all once weekly doses (0.25, 0.5, or 1 mg/kg) and included increased eosinophils (1.9× to 6.7×); minimal capsular fibroplasia/fibrosis of spleen without inflammation or involvement of adjacent mesentery; and pharmacologically mediated infiltration of eosinophils into a few tissues, none of which were considered adverse due to low magnitude of change and lack of evidence of any compromise in functional integrity of organs involved."}, "[12]": {"experiment": "Human PK/PD, exposure and efficacious dose projection", "conditions": "projected peak", "method": "Human PK was projected using allometric scaling of monkey PK parameters and was assumed to have similar SC bioavailability as in monkeys.\nThe first approach was based on maximal preclinical efficacy in mouse models dosed with mIL2-CD25.\nThe selection of the starting dose of 0.1 mg IV is based on the available preclinical PK, toxicology, and pharmacology data. PK/PD modeling and simulations were performed to generate predicted human PK and PD profiles from nonclinical data."}, "self-blocking homodimer": {"tested_on": "self-blocking homodimer", "sequence (as listed by the source)": "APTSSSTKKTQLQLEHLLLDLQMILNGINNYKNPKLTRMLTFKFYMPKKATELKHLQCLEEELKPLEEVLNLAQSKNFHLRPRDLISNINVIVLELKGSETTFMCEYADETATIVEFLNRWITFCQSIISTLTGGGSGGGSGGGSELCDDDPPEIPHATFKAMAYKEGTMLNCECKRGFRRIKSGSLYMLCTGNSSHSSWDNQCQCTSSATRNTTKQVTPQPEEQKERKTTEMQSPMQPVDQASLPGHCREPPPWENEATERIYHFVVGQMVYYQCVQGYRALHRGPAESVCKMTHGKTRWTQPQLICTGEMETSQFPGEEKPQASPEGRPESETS", "experiment": "Biochemical and biophysical characterization: homodimer dissociation", "format": "binding", "conditions": "in vitro at 37° C."}},
  "note": "Read-outs that look alike come from different tables or passages of the source.",
  "data": [
    {"substance": "BMS-986326: recombinant fusion protein of human IL2 and extracellular domain of human CD25, (GGGS)3 linker, non-covalent self-blocking homodimer", "values": [
      {"measurement": "expansion and proliferation of Tconv and CD8+ T cells", "setting": "monkeys [1]; 2 highest doses tested", "result": "dose-dependent expansion and proliferation"},
      {"measurement": "fold increase of % Treg above pre-dose at peak", "setting": "monkeys [1]; single SC […]", "result": 4.8, "unit": "fold"},
      {"measurement": "dose not tolerated", "setting": "monkeys [1]; single SC dose", "result": 2.5, "unit": "mg/kg"},
      {"measurement": "well tolerated doses", "setting": "monkeys [1]; single SC dose", "result": "up to 0.75 mg/kg"},
      {"measurement": "NOAEL AUC[0-504 hours]", "setting": "monkeys [2]; 12-week (once every 3 weeks) SC monkey toxicology study", "result": "≤ 306", "unit": "μ·h/ml"},
      {"measurement": "magnitude of increase in Tregs relative to increase in conventional T cells", "setting": "monkeys [2]; 12-week monkey study, Q3W, across the dose range", "result": "≤ 2", "unit": "times"},
      {"measurement": "eosinophilic or mononuclear cell infiltration into other tissues", "setting": "monkeys [2]; monkey, in vivo, sc", "result": "no eosinophilic or mononuclear cell infiltration into other tissues"},
      {"measurement": "NOAEL", "setting": "monkeys [2]; monkeys, 12-week SC Q3W", "result": 0.25, "unit": "mg/kg/dose"},
      {"measurement": "mean AUC at NOAEL", "setting": "monkeys [2]; monkeys, […] Q3W", "result": 306, "unit": "µg·h/mL"},
      {"measurement": "AUC", "setting": "monkeys [3]; 0.075 mg/kg", "result": "approximately 48 μg·h/mL"},
      {"measurement": "AUC", "setting": "monkeys [3]; 0.75 mg/kg", "result": "~407", "unit": "µg·h/mL"},
      {"measurement": "AUC[INF]", "setting": "monkeys [3]; 0.75 mg/kg", "result": 407, "unit": "µg·h/mL"},
      {"measurement": "Treg versus baseline levels", "setting": "Treg", "result": "increased from baseline levels"},
      {"measurement": "linker-cleavage", "setting": "[4]", "result": "did not show signs of linker-cleavage"},
      {"measurement": "dose not tolerated (morbidity or death on Day 5)", "setting": "rats [5]; male rats, single SC dose", "result": "≥ 25", "unit": "mg/kg/day"},
      {"measurement": "mean AUC [0-96 h]", "setting": "rats [5]; rats, 5 mg/kg", "result": 501, "unit": "µg·h/mL"},
      {"measurement": "dose with no adverse effects observed", "setting": "rats [5]; rats, single SC dose", "result": 5, "unit": "mg/kg"},
      {"measurement": "mean AUC [0-96 h] at not tolerated doses", "setting": "rats [5]; rats, ≥25 mg/kg/day", "result": "≥ 2,080 μg·h/mL"},
      {"measurement": "decrease of in vitro potency compared to recombinant IL-2", "setting": "[6]", "result": "> 100", "unit": "fold"},
      {"measurement": "EC50", "setting": "[6]; Kit225 IRF1-driven reporter cell line, read-out: average half-maximal effective concentration (EC50)", "result": 3.4, "unit": "nM"},
      {"measurement": "Kd", "setting": "[7]", "result": "> 4000", "unit": "nM"},
      {"measurement": "decreased platelets", "setting": "monkeys [8]", "result": "0.9-0.6"},
      {"measurement": "decreased red cell mass versus pretest", "setting": "monkeys [8]", "result": "0.9-0.6"},
      {"measurement": "doses with adverse inflammation in eye choroid and choroid plexus of brain", "setting": "monkeys [8]", "result": "≥ 0.25", "unit": "mg/kg/week"},
      {"measurement": "increased liver weights", "setting": "monkeys [8]", "result": "16-75%"},
      {"measurement": "number of tissues affected by mixed cell inflammation", "setting": "monkeys [8]", "result": "16-28"},
      {"measurement": "clinical signs", "setting": "monkeys [8]; 0.75 mg/kg", "result": "adverse clinical signs of toxicity"},
      {"measurement": "increased heart rate", "setting": "monkeys [8]; 0.75 mg/kg", "result": "25-28%"},
      {"measurement": "mean AUC[0-168 h]", "setting": "monkeys [8]; 0.75 mg/kg", "result": "≥ 601", "unit": "µg·h/mL"},
      {"measurement": "Kd", "setting": "[9]", "result": "> 4000", "unit": "nM"},
      {"measurement": "linker-cleavage", "setting": "[10]", "result": "did not show signs of linker-cleavage"},
      {"measurement": "mean AUC at NOAEL", "setting": "rats [11]; 1 mg/kg once weekly", "result": 162, "unit": "µg·h/mL"},
      {"measurement": "NOAEL", "setting": "rats [11]; once weekly dosing for 2 weeks", "result": 1, "unit": "mg/kg"},
      {"measurement": "Fold-change CD8+", "setting": "[12]; 0.1 mg IV", "result": "<2", "unit": "fold"},
      {"measurement": "Fold-change Tregs", "setting": "[12]; 0.1 mg IV", "result": "<2", "unit": "fold"},
      {"measurement": "Fold-change CD8+", "setting": "[12]; 0.3 mg IV", "result": "<2", "unit": "fold"},
      {"measurement": "Fold-change Tregs", "setting": "[12]; 0.3 mg IV", "result": "<2", "unit": "fold"},
      {"measurement": "Fold-change CD8+", "setting": "[12]; 1 mg IV", "result": "<2", "unit": "fold"},
      {"measurement": "Fold-change Tregs", "setting": "[12]; 1 mg IV", "result": "2-4 fold"},
      {"measurement": "Fold-change CD8+", "setting": "[12]; 1 mg SC", "result": "<2", "unit": "fold"},
      {"measurement": "Fold-change Tregs", "setting": "[12]; 1 mg SC", "result": "2-3 fold"},
      {"measurement": "Fold-change CD8+", "setting": "[12]; 3 mg IV", "result": "<2", "unit": "fold"},
      {"measurement": "Fold-change Tregs", "setting": "[12]; 3 mg IV", "result": "4-8 fold"},
      {"measurement": "Fold-change CD8+", "setting": "[12]; 3 mg SC", "result": "<2", "unit": "fold"},
      {"measurement": "Fold-change Tregs", "setting": "[12]; 3 mg SC", "result": "3-5 fold"},
      {"measurement": "Fold-change CD8+", "setting": "[12]; 6 mg IV", "result": "~2", "unit": "fold"},
      {"measurement": "Fold-change Tregs", "setting": "[12]; 6 mg IV", "result": "7-15 fold"},
      {"measurement": "Fold-change CD8+", "setting": "[12]; 6 mg SC", "result": "<2", "unit": "fold"},
      {"measurement": "Fold-change Tregs", "setting": "[12]; 6 mg SC", "result": "4-8 fold"},
      {"measurement": "Fold-change CD8+", "setting": "[12]; 8 mg SC", "result": "~2", "unit": "fold"},
      {"measurement": "Fold-change Tregs", "setting": "[12]; 8 mg SC", "result": "5-10 fold"},
      {"measurement": "Fold-change CD8+", "setting": "[12]; 9 mg IV (optional Cohort A6)", "result": "~2", "unit": "fold"},
      {"measurement": "Fold-change Tregs", "setting": "[12]; 9 mg IV (optional Cohort A6)", "result": "10-20 fold"},
      {"measurement": "dissociation half-life of self-blocking homodimer", "setting": "self-blocking homodimer", "result": "approximately 3 days"}
    ]}
  ]
}
